Patent publication EP2407164A1, “Copper II complexes of phenanthroline and their use in cancer treatment” (Dublin Institute of Technology Intellectual Property Ltd, priority 2010, dated 2012)

Experiments:
CT-DNA [1] = assay: Competitive ethidium bromide displacement; type: binding, calf; conditions: for Kapp (apparent binding constant): Kapp = Ke x 1.26/C50 where Ke = 9.5 x 10^6 M(bp)^-1; for Kapp (apparent binding constant) / IC50: 1.2 µM EtBr, 1 µM CT-DNAp, pH 7.0; for IC50: final volume 2 mL, 10 mM TES, 0.1 mM Na2EDTA, read-out: C50 = concentration required to reduce fluorescence by 50%
Method: Competitive Ethidium Displacement. […] Complexes 4-6, actinomycin D, pentamidine isethionate were prepared at 2.0 mM in DMSO. Two millilitres of DNA-Et solution were placed in a 10-mm quartz cuvet (3 mL) and positioned in a temperature controlled (20°C) spectrofluorometer (Perkin Elmer LS55B Luminescence Spectrometer). Excitation and emission wavelengths were set to 546 and 595 nm, respectively. After thermal equilibrium was established the emission and excitation slits were modified to give a fluorescence reading of 50 arbitrary units with measurements being recorded over a 20-s interval. An aliquot of complex or drug solution was taken (0.5 - 10 µL), was added to the cuvette and after equilibration the fluorescence reading was recorded. Repeated aliquots were added until the fluorescence was 20-40% of the initial control. Triplicate titrations were preformed and the apparent binding constants were calculated using Kapp = Ke x 1.26/C50 where Ke = 9.5 x 10^6 M(bp)^-1.

SW480 = assay: MTT cytotoxicity assay, complex 7; type: cell-based; conditions: SW480 (Dukes' B) colon cancer line, 24 hr
Method: (§1) For cytotoxicity evaluation HT29, SW480 and SW620 cell lines were employed; all the cell lines were grown in RPMI 1640 media (Fischer). All media were supplemented with 10% foetal bovine serum (FBS) and 45 IU/ml penicillin and 45 µg/ml streptomycin and cells were maintained at 37 °C in a 5% CO2 humidified incubator.
(§2) For sterilisation samples were filtered with a 0.2 micron cellulose acetate filter. For cytotoxicological evaluation all samples were prepared fresh on the day of exposure. A stock concentration of test compound was prepared in the exposure media (10% DMEM F-12) necessary for the cell line under test. This sample was vortexed to ensure a uniform dispersion of the compound under test.
(§3) For cytotoxicity assays cells were seeded in 96-well microplates (Nunc, Denmark) at a density of 1 x 10^5 cells/ml for the 24 hr test, 5 x10^4 cells/ml for the 48 hr test and 3 x 10^4 cells/ml for the 96 hr test. […] After 24 h of cell attachment, plates were washed with 100 µl/well phosphate buffered saline (PBS) and the cells were treated with increasing concentrations of each compound for 24 h. Six replicate wells were used for each control and test concentration per microplate. Following the desired time of compound exposure, control medium or test exposures were removed, the cells were rinsed with PBS and 100 µl of fresh medium (without FBS or supplements) was added to each well. 10 µl of MTT (5 mg/ml) prepared in PBS was then added to each well and the plates were incubated for 3 h at 37°C in a 5% CO2 humidified incubator. After this incubation period the medium was discarded, the cells were washed with 100 µl of PBS and 100 µl of DMSO was added to each well to extract the dye. The plate was shaken at 240 rpm for 10 min and the absorbance was measured at 570 nm.
(§4) At least three independent experiments were conducted in triplicate for each cell line and toxicity endpoint. […] Control values were set as 100%. Differences between samples and the control were evaluated using the statistical analysis package SPSS 14.0. Statistically significant differences were set at p≤0.05.

SW620 = assay: MTT cytotoxicity assay, complex 7; type: cell-based; conditions: SW620 (Dukes' C) colon cancer line, 24 hr
Method: as §1, §2, §3, §4

pUC18 = assay: Nuclease activity: relaxation of supercoiled plasmid DNA, agarose gel; type: biochemical; conditions: 37 °C; for concentration at which nuclease activity is seen: supercoiled pUC18, 5 hours, no added H2O2, oxidant or reductant
Method: Nuclease Activity. Reactions were carried out in a total volume of 20 µL in 0.1 M cacodylate buffer (pH = 6.0) with either 0.5, 2.5, 10 µL of 40 µM complex or 2, 5, 10 µL of 200 µM of complex, which were initially prepared in DMF, then diluted in cacodylate buffer (in which they dissolved), with 1 µL of 0.25 µg/µL pUC18 in cacodylate buffer. The resulting mixtures contained 1, 5, 10, 20, 50 and 100 µM of complex and […] of pUC18. Samples were incubated for 5 hr at 37°C. Quench buffer (3 µL; 0.25% bromophenolblue, 0.25% xylene cyanole and 30% glycerol) was then added and samples were loaded onto agarose gel (0.8%) containing 1.5 µL/100 mL of solution of GelRed™ (10,000X). Electrophoresis was completed at 80 V for 2 hr in 1XTAE buffer.

HT29 [2] = assay: MTT cytotoxicity assay, complex 7; type: cell-based, Human; conditions: HT29 colon cancer line, 24 hr
Method: as §1, §2
For cytotoxicity assays cells were seeded in 96-well microplates (Nunc, Denmark) at a density of 1 x 10^5 cells/ml for the 24 hr test, 5 x10^4 cells/ml for the 48 hr test and 3 x 10^4 cells/ml for the 96 hr test. […] After 24 h of cell attachment, plates were washed with 100 µl/well phosphate buffered saline (PBS) and the cells were treated with increasing concentrations of each compound for 24 h. […] The plate was shaken at 240 rpm for 10 min and the absorbance was measured at 570 nm.
At least three independent experiments were conducted in triplicate for each cell line and toxicity endpoint. […] Differences between samples and the control were evaluated using the statistical analysis package SPSS 14.0. […]

CT-DNA [3] = assay: DNA-ethidium fluorescence quenching; type: binding, calf; conditions: Q = equivalent concentration required to reduce fluorescence by 50%; 2.0 µM EtBr, 20 µM DNAp, 2 mM NaOAc buffer, 9.3 mM NaCl, pH 5.0
Method: (§5) DNA-Ethidium Fluorescence Quenching. Working solutions containing 20 µM poly[d(AT)]2 (ε260 = 13,100 M(bp)^-1 cm^-1), poly[d(G-C)]2 (ε260 = 16,800 M(bp)^-1 cm^-1) and CT-DNAp (ε260 = 12,824 M(bp)^-1 cm^-1) along with 2.0 µM Et in NaOAc buffer (2 mM NaOAc, 9.3 mM NaCl, 0.1 mM Na2EDTA, pH = 5.0) were prepared. Subsequent experimental steps are identical to the displacement experiment with the exception that a fluorescence reading of 200 arbitrary units with measurements being recorded over a 20-s interval was used. From a plot of the fluorescence vs added drug concentration, the Q values is given by the concentration required to effect 50% removal of the initial fluorescence.

[4] = tested on: four Human-derived tumor lines; assay: MTT assay, summary statements over the four tumor lines; type: cell-based; conditions: MCF-7, DU145, SK-OV-3, HT29, 24 hours
Method: (§6) Human colon cancer cell line, HT29 (passage 17 to 30, ATCC, USA), was grown in McCoys's 5a medium supplemented with 2mM L-glutamine and fetal bovine serum (FBS) 10% and containing 100U/ ml penicillin and 100µg / ml streptomycin at 37°C in a humidified atmosphere with 5% CO2 Human Breast Cancer cell line, MCF-7 (passage 16 to 26, ATCC, USA) was grown in Eagle's minimum essential medium containing 2mM L-glutamine, 100U/ ml penicillin,100µg/ ml streptomycin, FBS (10%), 1mM sodium pyruvate and 1% (v/v) non essential amino acids at 37°C in a humidified atmosphere with 5% CO2 Human prostate cancer cell line, DU145 (passage 12 to 29, ATCC, USA) was grown in Eagle's minimum essential medium containing 2mM L-glutamine, 100U/ ml penicillin, 100µg/ ml streptomycin, FBS (10%), 1mM sodium pyruvate and 1% (v/v) non essential amino acids at 37°C in a humidified atmosphere with 5% CO2. All drugs were tested by MTT assay following 24-hour exposure of cells to each compound. Each value represents the mean IC50 of three independent experiments +/- standard error.
MTT Assay. This method is based on the reduction of the tetrazolium salt, methylthiazolyldiphenyl-tetrazolium bromide (MTT) into a crystalline blue formazan product by the cellular oxidoreductases of viable cells. […] The plates were then shaken for 2 min and the absorbance was read at 550 nm in a Varioscan plate reader. […]

HT29 [5] = assay: MTT cytotoxicity assay, complexes 1-6; type: cell-based, Human; conditions: HT29 colon cancer, 24 hr exposure, mean of three independent experiments +/- standard error
Method: as §6
(§7) MTT Assay. This method is based on the reduction of the tetrazolium salt, methylthiazolyldiphenyl-tetrazolium bromide (MTT) into a crystalline blue formazan product by the cellular oxidoreductases of viable cells. The resultant formazan crystal formation is proportional to the number of viable cells. Cells were seeded at 4x 10^5 cells/ml in 96-well plates and incubated at 37°C in 5% CO2 for 24 hours. Cells were treated with a four log range of concentration of the test compounds in triplicate from 0.1 to 500 µM or with a solvent control (0.5% DMSO) in complete medium. Following 24 h incubation, cells were incubated with 20 µl of MTT (5 mg/ml) in 0.1 M PBS, pH 7.4 at 37 °C in a humid atmosphere with 5% CO2 for 4 h. Media was then gently aspirated from test cultures and 100 µL of dimethyl sulphoxide (DMSO) was added to all wells. The plates were then shaken for 2 min and the absorbance was read at 550 nm in a Varioscan plate reader. The IC50 was defined as the concentration of test compound required to reduce the absorbance of the MTT-formazan crystals by 50%, indicating 50% cell deactivation.

DU145 = assay: MTT cytotoxicity assay, complexes 1-6; type: cell-based, Human; conditions: DU145 prostate cancer, 24 hr exposure, mean of three independent experiments +/- standard error
Method: as §6, §7

MCF-7 = assay: MTT cytotoxicity assay, complexes 1-6; type: cell-based, Human; conditions: MCF-7 breast cancer, 24 hr exposure, mean of three independent experiments +/- standard error
Method: as §6, §7

poly[d(G-C)]2 = assay: DNA-ethidium fluorescence quenching; type: binding; conditions: Q = equivalent concentration required to reduce fluorescence by 50%; 2.0 µM EtBr, 20 µM DNAp, 2 mM NaOAc buffer, 9.3 mM NaCl, pH 5.0
Method: as §5

poly[d(A-T)]2 = assay: DNA-ethidium fluorescence quenching; type: binding; conditions: Q = equivalent concentration required to reduce fluorescence by 50%; 2.0 µM EtBr, 20 µM DNAp, 2 mM NaOAc buffer, 9.3 mM NaCl, pH 5.0
Method: as §5

SK-OV-3 = assay: MTT cytotoxicity assay, complexes 1-6; type: cell-based, Human; conditions: SK-OV-3 ovarian cancer, 24 hr exposure, mean of three independent experiments +/- standard error
Method: as §7
Cu(II) bis-phen complexes 4-6 display rapid, low micomolar toxicities against all tumor lines. […] It should be noted that 6 is dinuclear and so contains two active copper units, which may explain this heightened potency.

[6] = Solubility in organic solvents; conditions: DMSO/DMF

**Q.** For “[Cu2(oda)(phen)4](ClO4)2.2.67H2O.C2H5OH [Complex 7]”, which “Kapp (apparent binding constant)” value (CT-DNA [1]) is on record?
**A.** Its value is 2.55x10^5 M(bp)^-1.

**Q.** What about the “DNA binding ability, in words” value (CT-DNA [1]; competitive EtBr displacement with CT-DNA) of the same substance?
**A.** The value was “efficient ability to bind with calf thymus DNA”.

**Q.** What about the IC50 (CT-DNA [1]) of the same substance?
**A.** Its IC50 is 46.9 µM.

**Q.** What about the “Activity LD50” value (SW480) of the same substance?
**A.** Its value is 11.3 µM.

**Q.** What about the “Activity LD50” value (SW620) of the same substance?
**A.** The value was 31 µM.

**Q.** And the “'self-activating' nuclease activity (relaxation of SC pUC18), in words” value (pUC18; 1-100 µM complex, 5 hours, no added H2O2 or reductant)?
**A.** Its value is “highly efficient in the cleavage of plasmid DNA”.

**Q.** What about the “concentration at which nuclease activity is seen” value (pUC18) of the same substance?
**A.** Its value is ≥ 10 µM.

**Q.** What about the “Activity LD50” value (HT29 [2]) of the same substance?
**A.** Its value is 9.61 µM.

**Q.** And the IC50 (CT-DNA [3])?
**A.** Its IC50 is 22.6 µM.

**Q.** With “[{Cu{(phen)2}2(terph)](terph)10H2O.3EtOH [Complex 6]” as the substance, how does the “cytotoxicity against all tumor lines, in words” value [4] read?
**A.** The value was “best broad-spectrum activity”.

**Q.** And the “Kapp (apparent binding constant)” value (CT-DNA [1])?
**A.** The value was 3.04x10^5 M(bp)^-1.

**Q.** And the IC50 (CT-DNA [1])?
**A.** Its IC50 is 39.4 µM.

**Q.** And the IC50 (HT29 [5])?
**A.** The IC50 was 5.4 ± 0.3 µM.

**Q.** What about the IC50 (DU145) of the same substance?
**A.** Its IC50 is 5.7 ± 0.2 µM.

**Q.** What about the IC50 (MCF-7) of the same substance?
**A.** Its IC50 is 7.9 ± 0.4 µM.

**Q.** What about the IC50 (poly[d(G-C)]2) of the same substance?
**A.** Its IC50 is 10.3 µM.

**Q.** And the IC50 (poly[d(A-T)]2)?
**A.** The IC50 was 8.55 µM.

**Q.** And the IC50 (SK-OV-3)?
**A.** The IC50 was 6.7 ± 0.4 µM.

**Q.** What about the “concentration at which nuclease activity is seen” value (pUC18) of the same substance?
**A.** Its value is 1 to 5 µM.

**Q.** What about the Solubility [6] of the same substance?
**A.** The Solubility was “forms only suspensions in DMSO/DMF”.
